Test results published in EP0041644B1 (priority 1980, dated 1981).

Columns and labels:
L-1210 Leukemia = L-1210 Leukemia (Table IX); assay type: in vivo, mice
Procedure: The sodium and ammonium salts of the present invention were tested against transplantable mouse tumors as indicated below.

O=C1[O][Pt-2]2([NH2+]CC3(CCCCC3)C[NH2+]2)[O]C(=O)C1O [2-hydroxymalonato (1,1-diaminomethylcyclohexane)platinum (II)]
Water-solubility at room temperature (Water solubility): < 1600 µg/mL
Average Weight Change,g (L-1210 Leukemia; 2 mg/kg/inj ip, qd 1→9): -1.3 g
Effect MST % T/C (L-1210 Leukemia; 2 mg/kg/inj ip, qd 1→9): 138 % T/C
MST Days (L-1210 Leukemia; 2 mg/kg/inj ip, qd 1→9): 9.0 days
Survivors Day 5(45) (L-1210 Leukemia; 2 mg/kg/inj ip, qd 1→9): 6/6
Average Weight Change,g (L-1210 Leukemia; 4 mg/kg/inj ip, qd 1→9): -1.7 g
Effect MST % T/C (L-1210 Leukemia; 4 mg/kg/inj ip, qd 1→9): 192 % T/C
MST Days (L-1210 Leukemia; 4 mg/kg/inj ip, qd 1→9): 12.5 days
Survivors Day 5(45) (L-1210 Leukemia; 4 mg/kg/inj ip, qd 1→9): 6/6
Average Weight Change,g (L-1210 Leukemia; 8 mg/kg/inj ip, qd 1→9): -2.1 g
Effect MST % T/C (L-1210 Leukemia; 8 mg/kg/inj ip, qd 1→9): 269 % T/C
MST Days (L-1210 Leukemia; 8 mg/kg/inj ip, qd 1→9): 17.5 days
Survivors Day 5(45) (L-1210 Leukemia; 8 mg/kg/inj ip, qd 1→9): 6/6
Average Weight Change,g (L-1210 Leukemia; 12 mg/kg/inj ip, Day 1): -1.6 g
Effect MST % T/C (L-1210 Leukemia; 12 mg/kg/inj ip, Day 1): 185 % T/C
MST Days (L-1210 Leukemia; 12 mg/kg/inj ip, Day 1): 12.0 days
Survivors Day 5(45) (L-1210 Leukemia; 12 mg/kg/inj ip, Day 1): 6/6
Average Weight Change,g (L-1210 Leukemia; 12 mg/kg/inj ip, qd 1→9): -2.1 g
Effect MST % T/C (L-1210 Leukemia; 12 mg/kg/inj ip, qd 1→9): 269 % T/C
MST Days (L-1210 Leukemia; 12 mg/kg/inj ip, qd 1→9): 17.5 days
Survivors Day 5(45) (L-1210 Leukemia; 12 mg/kg/inj ip, qd 1→9): 6/6
Average Weight Change,g (L-1210 Leukemia; 18 mg/kg/inj ip, Day 1): -2.0 g
Effect MST % T/C (L-1210 Leukemia; 18 mg/kg/inj ip, Day 1): 169 % T/C
MST Days (L-1210 Leukemia; 18 mg/kg/inj ip, Day 1): 11.5 days
Survivors Day 5(45) (L-1210 Leukemia; 18 mg/kg/inj ip, Day 1): 6/6
Average Weight Change,g (L-1210 Leukemia; 24 mg/kg/inj ip, Day 1): -2.8 g
Effect MST % T/C (L-1210 Leukemia; 24 mg/kg/inj ip, Day 1): 223 % T/C
MST Days (L-1210 Leukemia; 24 mg/kg/inj ip, Day 1): 14.5 days
Survivors Day 5(45) (L-1210 Leukemia; 24 mg/kg/inj ip, Day 1): 6/6
Average Weight Change,g (L-1210 Leukemia; 36 mg/kg/inj ip, Day 1): -3.6 g
Effect MST % T/C (L-1210 Leukemia; 36 mg/kg/inj ip, Day 1): 246 % T/C
MST Days (L-1210 Leukemia; 36 mg/kg/inj ip, Day 1): 16.0 days
Survivors Day 5(45) (L-1210 Leukemia; 36 mg/kg/inj ip, Day 1): 5/6
maximum T/C (L-1210 Leukemia; qd 1→9 (cis-DDP 2.4, parent 8 and 12, sodium salt 12 mg/kg/injection)): 269%
maximum T/C (L-1210 Leukemia; single ip injection at maximum tolerated dose (cis-DDP 8 mg/kg, the two others 36 mg/kg)): 246%
